Results: US7332495B2 (priority 2002, dated 2008)
Like-named read-outs stand apart in the source and are kept apart here. Marks after values point to notes of the source that are not given here.

Legend:
rat [1] = assay: animal or person; conditions: for responders at 20 mg/kg: ip
Description: Using 55° C. hot plate pain threshold detector (available from Ninghai Baishi Electronic Medical Instrument Co., Zheijiang, China) the threshold change before and after administration of a pharmaceutical composition of the present invention is tested. […] hind paw was scrubbed with alcohol cotton ball before the experiment. The regular pain threshold was tested twice for each rat, the induced hind paw licking time being recorded as the pain threshold. Measurements were made at 20-30 minute intervals. Only rats with stable pain reaction were used in the pharmaceutical test.
(§1) Two species of animals (mice and rats) and four types of pain testing models (i.p. 0.7% acetic acid, s.c. 5% formalin, hot plate 55° C., focused radiant heat) were used.

Mice [2] = assay: Mice 55° C. hot plate; assay type: in vivo; conditions: Mus musculus, po, read-out: Analgesia ED50
Description: as §1

rat [3] = assay: Rat 5% formalin paw s.c.; assay type: in vivo; conditions: p.o., read-out: Analgesia ED50
Description: as §1

[4] = Summary of all three algogenic models; assay type: in vivo; conditions: in words
From the text: All the compounds mentioned above have profound for further value development.

voltage-gating channel = assay: Electrophysiology of hippocampus's pyramidal cell: voltage-gating channel; assay type: cell-based
Mice [5] = assay: Jumping test in mice (Narcan precipitated); assay type: in vivo; conditions: for Times for jump (IV ± SD): 3 times per day for 7 days, Narcan i.p. 2 mg/kg
Description: Sixty-four mice were divided into 4 groups (16 for each group, ? fifty-fifty) Morphine, IV-12-1 (75 mg/Kg) IV-12-2 (100 mg/Kg) and saline were administrated respectively 3 times per day for 7 days with progressive dose increase. On the 7th day, Narcan is injected (i.p. 2 mg/kg) to precipitate withdrawal. The number of times for the mice to jump was recorded and the incidence of the jump calculated.

Mice [6] = assay type: in vivo; conditions: 6 days training
Description: 30 mice were divided into 3 groups (10 for each group, ? fifty-fifty): IV-12-1 (1 mg/kg), IV-12-2 (5 mg/kg) and NS. Half of the mice in each group were administrated (s.c.) in the morning and 30 minutes later put into a white box (with medicine), and trained for 30 minutes; Saline is administrated (s.c.) in the afternoon and 30 minutes later put into a black box (without medicine), and trained for 30 minutes. The other half of the group are given saline in the morning and IV-12 in the afternoon, other procedures are the same as above.
The two training periods were at least 6-hour apart and training was continuous for 6 days. On the 7th day, the staying time was tested in both of the boxes.

rats = assay: Spontaneous withdrawal tests (body weight); assay type: in vivo; conditions: for Weight after withdrawal compared with weight one day before withdrawal: IV-12-1 75 mg/kg; for Increase (%) of weight / Weight: IV-12-1 (75 mg/kg)

Nc1ccc(CN2CCN(CC(=O)c3ccccc3)CC2)cc1 [IV-12, N^1-(4-aminobenzyl)-N^4-phenacyl piperazine]
Increase (hot plate) (%) (rat [1]; 20 mg/kg, Table 5 summary): 100%
responders at 20 mg/kg (rat [1]; Rattus norvegicus, read-out: Analgesic ratio (Increase by 100%)): 100%
responders at 20 mg/kg (rat [1]; Rattus norvegicus, read-out: Analgesic ratio (More than 60 seconds)): 80%
ED50 (rat [1]; Rattus norvegicus, po, read-out: Analgesia ED50): 52.4 mg/kg
ED50 (Mice [2]): 20.6 mg/kg
ED50 (rat [3]): 102 mg/kg
Analgesic effect on all three algogenic models [4]: powerful analgesic effects
Sedative effect on all three algogenic models [4]: rather significant sedative effect
Effect on voltage-gating channel (voltage-gating channel): did not affect
Incidence for jump (%) (Mice [5]; IV-12-1 (75 mg/Kg)): 43.8*^## %
Times for jump (IV ± SD) (Mice [5]; IV-12-1 (75 mg/Kg)): 9 ± 18
Incidence for jump (%) (Mice [5]; IV-12-2 (100 mg/Kg)): 62.5* %
Times for jump (IV ± SD) (Mice [5]; IV-12-2 (100 mg/Kg)): 33 ± 40
Staying time in box with medicine (Mice [6]; 1 mg/kg s.c.): 496.4 ± 73.4 s
Staying time in box with medicine (Mice [6]; 5 mg/kg s.c.): 452.8 ± 119.5 s
Weight after withdrawal compared with weight one day before withdrawal (rats; ♀, 18 h after withdrawal): 1.01 ± 0.03
Weight after withdrawal compared with weight one day before withdrawal (rats; ♀, 42 h after withdrawal): 1.02 ± 0.05
Weight after withdrawal compared with weight one day before withdrawal (rats; ♀, 66 h after withdrawal): 1.03 ± 0.04
Weight after withdrawal compared with weight one day before withdrawal (rats; ♀, 90 h after withdrawal): 1.04 ± 0.06
Weight after withdrawal compared with weight one day before withdrawal (rats; ♀, 114 h after withdrawal): 1.06 ± 0.06
Weight after withdrawal compared with weight one day before withdrawal (rats; ♀, 162 h after withdrawal): 1.08 ± 0.07
Weight after withdrawal compared with weight one day before withdrawal (rats; ♂, 18 h after withdrawal): 1.01 ± 0.03
Weight after withdrawal compared with weight one day before withdrawal (rats; ♂, 42 h after withdrawal): 1.02 ± 0.03
Weight after withdrawal compared with weight one day before withdrawal (rats; ♂, 66 h after withdrawal): 1.04 ± 0.04
Weight after withdrawal compared with weight one day before withdrawal (rats; ♂, 90 h after withdrawal): 1.06 ± 0.05
Weight after withdrawal compared with weight one day before withdrawal (rats; ♂, 114 h after withdrawal): 1.08 ± 0.05
Weight after withdrawal compared with weight one day before withdrawal (rats; ♂, 138 h after withdrawal): 1.11 ± 0.06
Weight after withdrawal compared with weight one day before withdrawal (rats; ♂, 162 h after withdrawal): 1.12 ± 0.09
Increase (%) of weight (rats; 12 h after withdrawal): 2.9%
Weight (rats; 12 h after withdrawal): 248.1 ± 42 g
Weight (rats; 18 h after withdrawal): 250.5 ± 39 g
Increase (%) of weight (rats; 24 h after withdrawal): 2.2%
Weight (rats; 24 h after withdrawal): 246.3 ± 37 g
Weight (rats; 36 h after withdrawal): 253.9 ± 38 g
Increase (%) of weight (rats; 42 h after withdrawal): 4.3%
Weight (rats; 42 h after withdrawal): 251.3 ± 37 g
Increase (%) of weight (rats; 48 h after withdrawal): 3.3%
Weight (rats; 48 h after withdrawal): 249.1 ± 36 g
Increase (%) of weight (rats; 60 h after withdrawal): 7.2%
Increase (%) of weight (rats; 66 h after withdrawal): 4.8%
Weight (rats; 66 h after withdrawal): 252.8 ± 37 g
Increase (%) of weight (rats; 72 h after withdrawal): 4.4%
Increase (%) of weight (rats; 84 h after withdrawal): 9.4%
Weight (rats; 84 h after withdrawal): 263.7 ± 40 g
Increase (%) of weight (rats; 90 h after withdrawal): 6.8%
Weight (rats; 90 h after withdrawal): 257.4 ± 39 g
Increase (%) of weight (rats; 96 h after withdrawal): 5.4%
Weight (rats; 96 h after withdrawal): 254.2 ± 43 g
Increase (%) of weight (rats; 108 h after withdrawal): 11.4%
Weight (rats; 108 h after withdrawal): 268.6 ± 42 g
Increase (%) of weight (rats; 114 h after withdrawal): 8.5%
Weight (rats; 114 h after withdrawal): 261.6 ± 40 g
Increase (%) of weight (rats; 120 h after withdrawal): 8.0%
Weight (rats; 120 h after withdrawal): 260.3 ± 40 g
Increase (%) of weight (rats; 132 h after withdrawal): 14.4%
Weight (rats; 132 h after withdrawal): 275.8 ± 41 g
Increase (%) of weight (rats; 138 h after withdrawal): 11.3%
Weight (rats; 138 h after withdrawal): 268.3 ± 41 g
Increase (%) of weight (rats; 144 h after withdrawal): 9.8%
Weight (rats; 144 h after withdrawal): 264.7 ± 42 g
